Assay results: ChEMBL document CHEMBL1145256, “Synthesis of novel 10-deoxoartemisinins” (Bioorg Med Chem Lett, 2005)

What was measured:
Plasmodium falciparum [1] = test: microbe, parasite or virus in culture
Description: In vitro antimalarial activity against Plasmodium falciparum (Ghana)

Plasmodium falciparum [2] = test: microbe, parasite or virus in culture; remark: listed apart in the source
Description: In vitro antimalarial activity against Plasmodium falciparum resistant W-2

| SMILES | IC50 (Plasmodium falciparum [1]) | IC50 (Plasmodium falciparum [2]) |
| --- | --- | --- |
| C[C@H]1[C@@H](CCOC(=O)CCC(=O)O)O[C@@H]2O[C@]3(C)CC[C@H]4[C@H](C)CC[C@@H]1[C@@]24OO3 | 0.5 nM | 0.4 nM |
| C[C@H]1[C@@H](CCO)O[C@@H]2OC3(C)CC[C@H]4[C@H](C)CC[C@@H]1[C@@]24OO3 (single isomer, unassigned) | 1 nM | 1 nM |
| C[C@H]1[C@@H](CCNCc2ccccn2)O[C@@H]2O[C@]3(C)CC[C@H]4[C@H](C)CC[C@@H]1[C@@]24OO3 | 2 nM | 2 nM |
| C[C@H]1[C@@H](CCOC(=O)C2CCCCC2C(=O)O)O[C@@H]2O[C@]3(C)CC[C@H]4[C@H](C)CC[C@@H]1[C@@]24OO3 (some centres not stated) | 0.5 nM | 0.4 nM |
| C[C@@H]1CC[C@H]2[C@@H](C)C(=O)O[C@@H]3O[C@@]4(C)CC[C@@H]1[C@]32OO4 [ARTEMISININ] | 9 nM |  |
| C[C@H]1[C@@H](CCNCCc2ccccc2)O[C@@H]2O[C@]3(C)CC[C@H]4[C@H](C)CC[C@@H]1[C@@]24OO3 | 11 nM | 20 nM |
| C[C@H]1[C@@H](CCOC(=O)C2CC=CCC2C(=O)O)O[C@@H]2O[C@]3(C)CC[C@H]4[C@H](C)CC[C@@H]1[C@@]24OO3 (some centres not stated) | 0.5 nM | 0.4 nM |
| CCCNCC[C@H]1O[C@@H]2O[C@]3(C)CC[C@H]4[C@H](C)CC[C@@H]([C@H]1C)[C@@]24OO3 | 1 nM | 3 nM |
| C[C@H]1[C@@H](CCNCc2cccnc2)O[C@@H]2O[C@]3(C)CC[C@H]4[C@H](C)CC[C@@H]1[C@@]24OO3 | 1 nM | 1 nM |
